From patent US6124266A, “Sulpholipid composition and methods for treating skin disorders” (Scotia Lipid Teknik AB, priority 1996, dated 2000)
Read-outs that look alike come from different tables or passages of the source.

Key:
[1] = target: T1, PAF receptor (Homo sapiens, UniProt P25105); assay: [3H]PAF receptor binding assay; settings: human polymorphonuclear leukocytes, 120 min, 20° C., pH 7.0, 0.35-0.40 nM [3H]PAF; mean of 2-4 experiments in triplicate; read-out: IC50, displacement of [3H]PAF binding
T1 construct: endogenous in cells; host or cells: human polymorphonuclear leukocytes (intact cells from concentrated suspensions of human leukocytes)
T1 sequence (P25105 whole entry): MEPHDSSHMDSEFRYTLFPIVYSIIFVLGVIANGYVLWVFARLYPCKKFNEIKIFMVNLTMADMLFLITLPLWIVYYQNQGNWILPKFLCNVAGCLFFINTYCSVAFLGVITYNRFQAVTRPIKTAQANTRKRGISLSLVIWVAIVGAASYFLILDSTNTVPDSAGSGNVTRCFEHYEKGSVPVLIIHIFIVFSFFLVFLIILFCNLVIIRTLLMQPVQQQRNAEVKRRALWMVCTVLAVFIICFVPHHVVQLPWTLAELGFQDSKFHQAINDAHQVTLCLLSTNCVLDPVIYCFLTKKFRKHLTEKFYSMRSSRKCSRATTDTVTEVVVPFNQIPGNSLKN
Description: (§1) The PAF induced exocytosis model described above is used for screening for PAF receptor antagonists since it is a rapid, reproducable and reliable so called functional assay for PAF. However, a number of other actions, like elastase inhibition or membrane stabilisation, would also result in an inhibitory effect in the model which consequently is not exclusive for PAF receptor antagonism. To elucidate if SQDG acts through PAF receptor antagonism in the neutrophil, a receptor binding model using [3H]PAF as the radioligand was used.
Cell preparation: For the receptor binding experiments the cells were prepared in the same way as described above except that concentrated suspensions of human leukocytes in a CDP-adenine solution were used and in the final step the cells were suspended in the incubation buffer and the cell count was adjusted to 3.1×10^6 cells/ml.
[^3 H]PAF (C18; 1-O-[^3 H]octadecyl-2-acetyl-sn-3-phosphocholine; Amersham, England) receptor binding was studied in human polymorphonuclear leukocytes (2.5×10^6 cells/ml) using a method recently reevaluated by us (Vasange et al., in press, 1996). Incubations were performed for 120 min at 20° C. in a total volume of 1.0 ml containing […] 25 mM Tris HCl, 130 mM NaCl, 5.5 mM KCl, 1.4 mM CaCl2, 0.7 mM MgCl2, 10 mM glucose, 0.5% BSA and 0.35-0.40 nM [^3 H]PAF. Final pH was 7.0 at the incubation temperature used. Non-specific binding was determined with 1 μM C16-PAF (Bachem, Switzerland). The incubation contents were rapidly filtered by vacuum over Whatman GF/C glass-fibre filters using a 12 well Skatron Cell Harverster (Skatron A/S, Norway) and washed with 3×2 ml incubation buffer containing 0.1% BSA. The filtration took less than 15 s. Filters were also pre-soaked with incubation buffer containing 0.1% BSA. Following filtration, the filters were dried in an oven at 70° C. for 30 min and equilibrated for two hours in the scintillation vials before counting in a Packard scintillator at an efficiency of 55%. […]

[2] = system: PAF receptor; settings: cited from earlier work
[3] = system: oedema induced by carrageenan potentiated by PAF; settings: rat, in vivo; cited from earlier work
[4] = system: PAF induced elastase release in human neutrophils; assay: PAF induced exocytosis (elastase assay); format: cell-based; settings: for IC50: human leucocytes, 37° C., 10 min, mean of 2-4 experiments in duplicate, read-out: IC50, inhibition of PAF induced elastase release; for inhibitory activity in the PAF induced exocytosis model: in concentrations around the IC50 of SQDG
Experimental: In this test, which is also called the elastase assay, the effect of the extracts on inhibiting the exocytosis induced by PAF was examined. This model was used to guide the fractionation of the extracts or isolated compounds.
Cell preparation: Peripheral blood anti-coagulated with heparin was obtained from healthy volunteers at the University Hospital (in Uppsala, Sweden). After sedimentation with 10% Dextran T-500 (Pharmacia Fine Chemicals) for 30 min at 20° C. the supernatant was removed and centrifuged at 200×g for 30 min. The sediments were treated with one volume of ice-cold water for 21 s followed by the addition of 9 volumes of Mg^2+ and Ca^2+ free PBS in order to lyse the remaining erythrocytes. After centrifugation (200×g for 10 min at 4° C.) the leucocytes were suspended in PBS (containing Mg^2+ and Ca^2+ and Cytochalasin B, Serva, 5 μg/ml) at a concentration of 10-30×10^6 cells/ml.
The assay was performed as described by Tuominen et al., Planta Medica 58, 306-310 (1992). In short leucocytes were incubated at 37° C. in PBS containing 2.5% BSA together with SAAVNA (N-succinyl-L-alanyl-L-alanyl-L-valine-p-nitroanilide, Bachem), the inhibitor in different concentrations or the vehicle (max. 0.1% DMSO) and PAF (Bachem) for 10 min. Blank tubes without PAF were run in parallel. The reaction was stopped by the addition of 2% citric acid and after the centrifugation, the samples were measured in a UV spectrophotometer at 405 nm. The absorbance of the corresponding blank tube was subtracted from the sample and the inhibition of PAF induced elastase release was calculated as the […] in absorbance as compared to the vehicle. The samples were analyzed as 4-5 concentrations ranging from 10^-3 M to 10^-7 M. They were dissolved in 10% DMSO (the isolated compound) or cyclodextrin (BN 52021, used as a reference) and then diluted with the buffer. The final concentration of DMSO or cyclodextrin never exceeded 0.1%.
as §1

[5] = system: ethyl phenyl propiolate (EPP) induced rat ear oedema; assay: Rat ear oedema (EPP induced); format: in vivo; settings: mepyramine 1 μg/ear (positive control), 2 hours, 6 ears, p<0.01
Experimental: The rat ear oedema test is aimed to be used for detection of drugs with topical anti-inflammatory activity. It is based on the work by Tonelli et al., Endocrinology 77, 625-634, 1965, but instead of using the carcinogenic croton oil as induced, ethyl phenyl propiolate (EPP) is applied topically on the rat ears. The oedema develops rapidly (about 30 minutes) and starts to decline after two hours. Several measurements can be made by using a special measuring device and the values obtained with application of both EPP and the drug to be investigated are compared to values obtained with EPP alone.
The mechanism of the EPP induced oedema is not completely understood but it is known that compounds with broad anti-inflammatory action, like steroidal anti-inflammatory drugs, are active in this assay. The oedema can also be induced by other agents, such as arachidonic acid, and in that specific case the oedema is believed to develop through the action of the […], inflammatory mediators, leukotrienes. They can also contribute to the EPP oedema.
The Calaguala methanolic extract was tested in this model on several occasions. […]
The thickness of ears is measured after 2 hours. […] The significance of the values obtained was determined by using Students t-test (one tailed analysis). […]
The thickness of the ears was measured after 2 hours. […]

[6] = system: carrageenan induced rat paw oedema; assay: Rat paw oedema induced by carrageenan; format: in vivo, rat (Spraque Dawley); settings: Na-salicylate 200 mg/kg (positive control), p < 0.0005
Experimental: The most commonly used inducer is carrageenan which is injected to the hind paw of male Spraque Dawley rats.
Several tests were performed with the methanolic Calaguala extract which was applied orally in doses 500-2000 mg/kg. As positive control the cyclo-oxygenase inhibitor Na-salicylate (200 mg/kg) was used.
The significancies were calculated using Students t-test (one tailed).

[7] = system: leukotriene B4 synthesis in human leucocytes; settings: cited from earlier work
[8] = system: tumour promotion; settings: Chem. Pharm. Bull. 41 (9), 1664-1666, 1993; cited from earlier work

## COc1ccc(NC(=S)N2CCc3c(sc4c3C(c3ccccc3Cl)=NCc3nnc(C)n3-4)C2)cc1 [BN 50730]
[1]
  IC50: 0.04 µM
[2]; Guinot 1994
  PAF antagonistic activity in vitro (compared with BN 52021): several ten-folds more potent

## CC1C(=O)OC2C(O)C34C5CC(C(C)(C)C)C36C(OC(=O)C6O)OC4(C(=O)O5)C12O (stereo not drawn) [BN 52021]
[3]
  effect on PAF enhancement of carrageenan induced oedema: capable of abolishing this enhancement
[1]
  IC50: 25 µM
[4]
  IC50: 80 µM
[2]
  anti-inflammatory properties in several in vivo and in vitro models: anti-inflammatory properties

## COc1ccc(CN(CCN(C)C)c2ccccn2)cc1 [Mepyramin]
[5]
  Mean decrease in oedema (ear thickness, Table 2): 44%

## O=C(O)c1ccccc1O [Na-salicylate]
[6]
  Mean decrease in oedema (Table 4): 43%

## CCCCCCCCCCCCCCCC(=O)OC[C@H](CO[C@H]1O[C@H](CS(=O)(=O)O)[C@@H](O)[C@H](O)[C@H]1O)OC(=O)CCCCCCCCCCCCCCC [SQDG of the formula III, 1,2-O,O-dipalmitoyl-[6'-sulpho-α-D-quinovopyranosyl(1'→3)]-sn-glycerol]
[1]
  IC50: 2 µM
[4]; Neutrophil
  IC50: 10 µM

## CCCCC/C=C\C/C=C\C/C=C\C/C=C\CCCC(=O)O [arachidonic acid]
[7]
  inhibition of leukotriene B4 synthesis: inhibitory activity

## CCCCC/C=C\C/C=C\CCCCCCCC(=O)O [linoleic acid]
[7]
  inhibition of leukotriene B4 synthesis: inhibitory activity

## CC/C=C\C/C=C\C/C=C\CCCCCCCC(=O)O [linolenic acid]
[7]
  inhibition of leukotriene B4 synthesis: inhibitory activity

## CCCCCCCC/C=C\CCCCCCCC(=O)O [oleic acid]
[7]
  inhibition of leukotriene B4 synthesis: comparable inhibitory patterns

## digalactosyldiacylglycerol [DGDG]
[8]
  inhibition of tumour promotion compared with SQDG: inhibit tumour promotion more intensely than SQDG
[4]
  inhibitory activity in the PAF induced exocytosis model: no inhibitory activity

## monogalactosyldiacylglycerol [MGDG]
[8]
  inhibition of tumour promotion compared with SQDG: inhibit tumour promotion more intensely than SQDG
[4]
  inhibitory activity in the PAF induced exocytosis model: no inhibitory activity
